The results in this text go back to ChEMBL document CHEMBL5291721, “A preclinical secondary pharmacology resource illuminates target-adverse drug reaction associations of marketed drugs” (Nat Commun, 2023).

In test [1] the target is Vascular endothelial growth factor receptor 2 (Homo sapiens, UniProt P35968). The class given is functional.
The target in test [2] is Gamma-aminobutyric acid receptor subunit alpha-1/alpha-2/beta-2/gamma-2 (Homo sapiens, UniProt P14867+P18507+P47869+P47870). The class given is protein-complex assay.
Gamma-aminobutyric acid receptor subunit alpha-1/alpha-2/beta-2/gamma-2 (Homo sapiens, UniProt P14867+P18507+P47869+P47870), sequence (P14867 whole entry): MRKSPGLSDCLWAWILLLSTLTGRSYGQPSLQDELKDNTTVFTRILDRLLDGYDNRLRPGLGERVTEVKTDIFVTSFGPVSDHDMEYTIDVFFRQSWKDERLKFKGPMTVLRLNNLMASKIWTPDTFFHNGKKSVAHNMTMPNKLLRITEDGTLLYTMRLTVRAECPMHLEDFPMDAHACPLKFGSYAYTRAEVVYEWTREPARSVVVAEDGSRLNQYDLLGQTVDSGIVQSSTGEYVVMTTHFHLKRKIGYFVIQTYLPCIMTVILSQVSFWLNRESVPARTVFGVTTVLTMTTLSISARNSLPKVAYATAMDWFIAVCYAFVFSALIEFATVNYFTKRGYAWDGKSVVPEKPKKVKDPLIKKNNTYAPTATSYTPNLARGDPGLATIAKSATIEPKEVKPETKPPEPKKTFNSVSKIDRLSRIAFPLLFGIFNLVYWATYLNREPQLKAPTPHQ
Gamma-aminobutyric acid receptor subunit alpha-1/alpha-2/beta-2/gamma-2 (Homo sapiens, UniProt P14867+P18507+P47869+P47870), sequence (P47870 whole entry): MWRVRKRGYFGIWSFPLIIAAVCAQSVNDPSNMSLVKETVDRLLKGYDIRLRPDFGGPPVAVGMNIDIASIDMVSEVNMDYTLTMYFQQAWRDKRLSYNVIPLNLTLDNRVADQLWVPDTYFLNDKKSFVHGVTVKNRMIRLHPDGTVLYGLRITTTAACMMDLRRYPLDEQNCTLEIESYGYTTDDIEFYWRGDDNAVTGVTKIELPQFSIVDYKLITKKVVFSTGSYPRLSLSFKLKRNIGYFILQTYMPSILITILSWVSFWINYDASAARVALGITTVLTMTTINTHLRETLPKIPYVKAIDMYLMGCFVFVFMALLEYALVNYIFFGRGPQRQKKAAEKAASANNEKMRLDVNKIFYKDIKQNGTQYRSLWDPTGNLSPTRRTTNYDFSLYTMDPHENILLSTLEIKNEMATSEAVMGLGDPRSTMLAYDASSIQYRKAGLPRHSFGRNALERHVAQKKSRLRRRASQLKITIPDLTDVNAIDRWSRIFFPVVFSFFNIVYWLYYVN
Gamma-aminobutyric acid receptor subunit alpha-1/alpha-2/beta-2/gamma-2 (Homo sapiens, UniProt P14867+P18507+P47869+P47870), sequence (P18507 whole entry): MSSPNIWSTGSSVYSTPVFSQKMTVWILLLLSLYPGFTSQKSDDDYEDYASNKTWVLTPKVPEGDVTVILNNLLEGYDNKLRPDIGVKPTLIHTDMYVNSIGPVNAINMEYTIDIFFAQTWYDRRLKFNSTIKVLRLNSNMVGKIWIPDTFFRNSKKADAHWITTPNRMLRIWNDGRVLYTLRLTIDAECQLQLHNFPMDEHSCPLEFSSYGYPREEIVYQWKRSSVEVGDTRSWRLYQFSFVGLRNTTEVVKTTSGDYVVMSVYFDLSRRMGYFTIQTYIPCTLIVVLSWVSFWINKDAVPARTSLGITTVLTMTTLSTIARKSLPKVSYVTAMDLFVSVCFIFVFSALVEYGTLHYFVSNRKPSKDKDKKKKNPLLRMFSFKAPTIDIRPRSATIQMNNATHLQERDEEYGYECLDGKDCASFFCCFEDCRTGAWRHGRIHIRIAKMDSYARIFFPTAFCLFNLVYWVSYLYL
Gamma-aminobutyric acid receptor subunit alpha-1/alpha-2/beta-2/gamma-2 (Homo sapiens, UniProt P14867+P18507+P47869+P47870), sequence (P47869 whole entry): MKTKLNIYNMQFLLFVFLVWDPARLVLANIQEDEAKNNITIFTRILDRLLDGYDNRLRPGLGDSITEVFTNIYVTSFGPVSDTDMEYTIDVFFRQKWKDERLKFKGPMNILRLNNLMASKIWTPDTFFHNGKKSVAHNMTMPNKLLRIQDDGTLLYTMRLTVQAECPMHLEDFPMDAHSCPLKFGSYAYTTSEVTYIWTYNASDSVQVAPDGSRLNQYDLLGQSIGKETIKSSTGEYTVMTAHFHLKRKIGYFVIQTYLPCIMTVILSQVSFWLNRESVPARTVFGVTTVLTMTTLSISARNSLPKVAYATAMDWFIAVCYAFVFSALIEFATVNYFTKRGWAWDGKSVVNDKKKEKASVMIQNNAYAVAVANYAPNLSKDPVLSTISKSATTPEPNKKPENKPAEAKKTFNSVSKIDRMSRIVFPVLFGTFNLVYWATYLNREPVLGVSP
Test [3] addresses T1, Muscarinic acetylcholine receptor M1 (Homo sapiens, UniProt P11229).
T1 sequence (P11229 whole entry): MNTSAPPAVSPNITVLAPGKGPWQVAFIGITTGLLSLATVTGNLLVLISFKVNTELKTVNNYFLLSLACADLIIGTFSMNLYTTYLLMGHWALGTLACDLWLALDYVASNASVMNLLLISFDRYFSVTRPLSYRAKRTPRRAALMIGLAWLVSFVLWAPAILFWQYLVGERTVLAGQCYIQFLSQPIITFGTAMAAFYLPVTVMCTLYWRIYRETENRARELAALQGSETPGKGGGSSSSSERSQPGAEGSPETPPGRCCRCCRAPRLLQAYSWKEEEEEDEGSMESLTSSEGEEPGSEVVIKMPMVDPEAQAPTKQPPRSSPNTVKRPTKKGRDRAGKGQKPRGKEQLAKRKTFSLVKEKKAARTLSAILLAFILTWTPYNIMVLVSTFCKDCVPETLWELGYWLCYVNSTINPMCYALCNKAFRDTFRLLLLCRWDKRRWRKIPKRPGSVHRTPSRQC
The class given is functional, cell-based.

The target in test [4] is 5-hydroxytryptamine receptor 2B (Homo sapiens, UniProt P41595). The class given is functional, cell-based.
5-hydroxytryptamine receptor 2B, sequence (P41595 whole entry): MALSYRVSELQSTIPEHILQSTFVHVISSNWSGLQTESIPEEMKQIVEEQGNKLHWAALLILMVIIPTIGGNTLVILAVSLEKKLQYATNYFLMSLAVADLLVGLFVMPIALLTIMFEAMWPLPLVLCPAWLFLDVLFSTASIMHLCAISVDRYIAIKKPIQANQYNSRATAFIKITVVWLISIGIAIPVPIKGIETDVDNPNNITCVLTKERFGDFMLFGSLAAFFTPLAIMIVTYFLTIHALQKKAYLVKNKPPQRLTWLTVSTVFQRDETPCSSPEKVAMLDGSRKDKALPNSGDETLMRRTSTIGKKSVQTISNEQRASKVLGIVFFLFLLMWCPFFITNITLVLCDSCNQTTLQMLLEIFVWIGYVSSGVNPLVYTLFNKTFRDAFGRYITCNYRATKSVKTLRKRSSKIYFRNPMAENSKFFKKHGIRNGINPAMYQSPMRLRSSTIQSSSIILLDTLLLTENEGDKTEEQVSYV
Test [5] deals with T2, Alpha-2A adrenergic receptor (Homo sapiens, UniProt P08913).
T2 sequence (P08913 whole entry): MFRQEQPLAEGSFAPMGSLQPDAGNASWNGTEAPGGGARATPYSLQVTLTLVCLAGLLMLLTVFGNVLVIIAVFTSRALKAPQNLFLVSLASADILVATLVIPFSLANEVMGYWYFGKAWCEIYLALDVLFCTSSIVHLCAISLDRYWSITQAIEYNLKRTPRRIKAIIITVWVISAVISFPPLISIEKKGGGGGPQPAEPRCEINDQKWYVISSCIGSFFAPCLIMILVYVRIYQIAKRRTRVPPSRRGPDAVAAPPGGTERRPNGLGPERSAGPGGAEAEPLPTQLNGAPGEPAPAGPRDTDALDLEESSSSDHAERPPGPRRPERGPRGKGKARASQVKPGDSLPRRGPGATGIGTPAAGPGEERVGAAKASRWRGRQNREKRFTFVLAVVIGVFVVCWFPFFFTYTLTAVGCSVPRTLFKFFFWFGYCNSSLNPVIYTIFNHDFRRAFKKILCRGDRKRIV

The target of test [6] is D(1A) dopamine receptor (Homo sapiens, UniProt P21728). The class given is functional, cell-based.
D(1A) dopamine receptor, sequence (P21728 whole entry): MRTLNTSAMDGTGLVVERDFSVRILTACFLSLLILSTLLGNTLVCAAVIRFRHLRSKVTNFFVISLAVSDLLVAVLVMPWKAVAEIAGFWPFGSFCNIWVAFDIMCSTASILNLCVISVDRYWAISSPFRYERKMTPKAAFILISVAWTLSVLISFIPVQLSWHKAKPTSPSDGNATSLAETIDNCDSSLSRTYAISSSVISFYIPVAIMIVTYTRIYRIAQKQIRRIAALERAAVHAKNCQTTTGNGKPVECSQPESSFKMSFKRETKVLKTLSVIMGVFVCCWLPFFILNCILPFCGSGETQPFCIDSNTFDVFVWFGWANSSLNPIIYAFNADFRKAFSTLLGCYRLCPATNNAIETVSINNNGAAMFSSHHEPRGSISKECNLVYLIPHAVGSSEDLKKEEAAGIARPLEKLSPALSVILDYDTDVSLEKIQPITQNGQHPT
Test [7] concerns the target Gamma-aminobutyric acid receptor subunit alpha-1/alpha-2/beta-2/gamma-2 (Homo sapiens, UniProt P14867+P47870+P18507+P47869). The class given is protein-complex assay.
Test [8] has as its target T3, Thromboxane A2 receptor (Homo sapiens, UniProt P21731).
T3 sequence (P21731 whole entry): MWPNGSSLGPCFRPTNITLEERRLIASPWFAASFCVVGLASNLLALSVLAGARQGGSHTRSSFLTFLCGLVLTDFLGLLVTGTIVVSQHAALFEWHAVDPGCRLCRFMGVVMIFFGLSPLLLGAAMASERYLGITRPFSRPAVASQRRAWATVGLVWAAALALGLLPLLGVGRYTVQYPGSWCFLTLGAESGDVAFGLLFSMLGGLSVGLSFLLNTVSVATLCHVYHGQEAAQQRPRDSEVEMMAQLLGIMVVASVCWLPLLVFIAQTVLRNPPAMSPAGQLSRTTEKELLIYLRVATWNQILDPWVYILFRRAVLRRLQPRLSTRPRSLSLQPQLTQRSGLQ
The class given is functional, cell-based.
Note: assay procedure not described here.

Gamma-aminobutyric acid receptor subunit alpha-1/alpha-2/beta-2/gamma-2 (Homo sapiens, UniProt P14867+P47870+P18507+P47869), sequence (P14867 whole entry): as the sequence (P14867 whole entry) above
Gamma-aminobutyric acid receptor subunit alpha-1/alpha-2/beta-2/gamma-2 (Homo sapiens, UniProt P14867+P47870+P18507+P47869), sequence (P47870 whole entry): as the sequence (P47870 whole entry) above
Gamma-aminobutyric acid receptor subunit alpha-1/alpha-2/beta-2/gamma-2 (Homo sapiens, UniProt P14867+P47870+P18507+P47869), sequence (P18507 whole entry): as the sequence (P18507 whole entry) above
Gamma-aminobutyric acid receptor subunit alpha-1/alpha-2/beta-2/gamma-2 (Homo sapiens, UniProt P14867+P47870+P18507+P47869), sequence (P47869 whole entry): as the sequence (P47869 whole entry) above
Vascular endothelial growth factor receptor 2, sequence (P35968 whole entry): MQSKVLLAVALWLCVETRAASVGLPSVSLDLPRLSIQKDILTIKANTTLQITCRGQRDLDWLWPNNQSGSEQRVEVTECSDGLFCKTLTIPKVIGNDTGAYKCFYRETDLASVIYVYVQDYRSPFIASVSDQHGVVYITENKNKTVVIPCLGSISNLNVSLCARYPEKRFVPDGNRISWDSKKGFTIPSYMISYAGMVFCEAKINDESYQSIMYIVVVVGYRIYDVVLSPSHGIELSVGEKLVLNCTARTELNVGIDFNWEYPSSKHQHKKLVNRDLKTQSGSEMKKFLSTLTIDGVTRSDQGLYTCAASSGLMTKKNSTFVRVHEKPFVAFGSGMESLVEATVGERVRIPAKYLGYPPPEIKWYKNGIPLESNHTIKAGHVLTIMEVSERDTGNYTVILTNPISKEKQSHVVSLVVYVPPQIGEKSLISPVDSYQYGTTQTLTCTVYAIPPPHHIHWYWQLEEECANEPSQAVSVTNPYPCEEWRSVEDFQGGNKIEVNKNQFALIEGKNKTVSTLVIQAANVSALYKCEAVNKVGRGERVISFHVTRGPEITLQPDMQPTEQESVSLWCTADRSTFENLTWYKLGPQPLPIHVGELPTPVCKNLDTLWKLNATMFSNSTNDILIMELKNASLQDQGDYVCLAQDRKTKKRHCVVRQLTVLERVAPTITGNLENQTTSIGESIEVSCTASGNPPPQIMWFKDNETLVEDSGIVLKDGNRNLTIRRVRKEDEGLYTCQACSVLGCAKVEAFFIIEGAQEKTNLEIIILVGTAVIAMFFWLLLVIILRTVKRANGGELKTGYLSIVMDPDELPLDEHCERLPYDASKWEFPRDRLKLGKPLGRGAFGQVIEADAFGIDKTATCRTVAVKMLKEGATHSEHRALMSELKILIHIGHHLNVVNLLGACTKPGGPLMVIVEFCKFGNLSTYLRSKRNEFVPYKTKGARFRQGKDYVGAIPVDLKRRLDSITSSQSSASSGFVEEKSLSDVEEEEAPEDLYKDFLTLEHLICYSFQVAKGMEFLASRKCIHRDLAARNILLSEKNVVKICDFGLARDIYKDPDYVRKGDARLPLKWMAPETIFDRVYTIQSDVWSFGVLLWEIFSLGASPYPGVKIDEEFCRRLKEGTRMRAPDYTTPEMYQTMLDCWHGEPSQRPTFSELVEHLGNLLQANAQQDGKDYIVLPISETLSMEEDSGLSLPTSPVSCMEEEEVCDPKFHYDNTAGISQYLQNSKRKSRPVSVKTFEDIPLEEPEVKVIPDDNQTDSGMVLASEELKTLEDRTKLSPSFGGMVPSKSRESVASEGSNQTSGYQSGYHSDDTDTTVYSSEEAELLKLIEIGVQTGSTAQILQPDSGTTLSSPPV

`CC(CC1c2ccccc2CCc2ccccc21)CN(C)C` (stereo not drawn) [BUTRIPTYLINE] came in with an AC50 in test [1] above 30 µM.

For the compound `CO[C@]12C[C@@H](COC(=O)c3cncc(Br)c3)CN(C)[C@@H]1Cc1cn(C)c3cccc2c13` [NICERGOLINE], the half-maximal activity concentration (AC50) in test [2] was above 10 µM; in test [3], 1.86 µM; in test [4] it was above 30 µM; in test [5] it was 0.0426 µM.

Compound `Cc1cc(C(C)(C)C)c(O)c(C)c1CC1=NCCN1` [OXYMETAZOLINE] showed an AC50 in test [6] above 30 µM.

With THIMEROSAL, the AC50 in test [7] was above 30 µM; in test [8], above 10 µM.
